Results from patent US9513294B2, “Megastokes amino-triazolyl-BODIPY compounds and applications to live neuron staining and human serum albumin FA1 drug site probing” (National University of Singapore, priority 2012, dated 2016).
Values belong to the compound of their own block, whether it stands above or below them.

Key:
[1] = Absorbance and fluorescence emission spectra (SpectraMax M2); type: physicochemical; settings: for λmax Abs. (nm) / λmax Em. (nm): MKAC compound library; for λmax Abs. (nm) / λmax Absorp. (nm): absorbance maximum; for λmax Em. (nm) / λmax Emission (nm): fluorescence emission maximum; for λmax Absorp. (nm) / λmax Emission (nm): MKCA compound library
Procedure, shortened: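 Spectroscopic data, including quantum yields, were recorded with a SpectraMax M2 instrument and analysed in GraphPrism.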

[2] = Quantum yield measurements versus Acridine Yellow in EtOH; type: physicochemical; settings: for φ (quantum yield): excitation 460 nm; for φ (%): quantum yield
Procedure, shortened: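 Emission areas integrated over 510–700 nm were compared with Acridine Yellow in ethanol (Φ=0.47), all excited at 460 nm. The comparative equation was normalized to excitation-wavelength absorbance and solvent refractive index.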

- λmax Absorp. ([1]; BDC library, Table 2): 466 nm
- λmax Emission ([1]; BDC library, Table 2): 547 nm
- φ (quantum yield) ([2]; BDC library, Table 2): 0.57%
SMILES: Nc1ccc(C2=C3C=CC(N4CCCCC4)=[N+]3[B-](F)(F)n3c2ccc3-n2cc(-c3cc(C(F)(F)F)cc(C(F)(F)F)c3)nn2)cc1 [BDC-30]

- λmax Abs. (nm) [1]: 467 nm
- λmax Em. (nm) [1]: 581 nm
- φ (%) ([2]; MKAC compound library): 2.93%
SMILES: CCCc1cn(-c2ccc3n2[B-](F)(F)[N+]2=C(N4CC(C)OC(C)C4)C=CC2=C3c2ccc(NC(C)=O)cc2)nn1 (stereo not drawn) [MKAC20-48]

- λmax Abs. (nm) [1]: 467 nm
- λmax Em. (nm) [1]: 561 nm
- φ (%) ([2]; MKAC compound library): 22.19%
SMILES: CCCc1cn(-c2ccc3n2[B-](F)(F)[N+]2=C(NCc4cc(F)cc(F)c4)C=CC2=C3c2ccc(NC(C)=O)cc2)nn1 [MKAC412-48]

- λmax Absorp. ([1]; BDCAC library, Table 3): 467 nm
- λmax Emission ([1]; BDCAC library, Table 3): 581 nm
- φ (quantum yield) ([2]; BDCAC library, Table 3): 0.8%
SMILES: CC(=O)Nc1ccc(C2=C3C=CC(N4CCCCC4)=[N+]3[B-](F)(F)n3c2ccc3-n2cc(CC(C)C)nn2)cc1 [BDCAC-43]

- λmax Absorp. ([1]; BDC library, Table 2): 476 nm
- λmax Emission ([1]; BDC library, Table 2): 582 nm
- φ (quantum yield) ([2]; BDC library, Table 2): 0.16%
SMILES: Nc1ccc(C2=C3C=CC(N4CCCCC4)=[N+]3[B-](F)(F)n3c2ccc3-n2cc(C3CCCC3)nn2)cc1 [BDC-5]

- λmax Abs. (nm) [1]: 465 nm
- λmax Em. (nm) [1]: 563 nm
- φ (%) ([2]; MKAC compound library): 23.84%
SMILES: CC(=O)Nc1ccc(C2=C3C=CC(NCc4ccccc4C)=[N+]3[B-](F)(F)n3c2ccc3-n2cc(C3CC3)nn2)cc1 [MKAC101-4]

- λmax Absorp. (nm) [1]: 461 nm
- λmax Emission (nm) [1]: 570 nm
- φ (%) ([2]; MKCA compound library): 4.04%
SMILES: CC(C)Cc1cn(-c2ccc3n2[B-](F)(F)[N+]2=C(N4CCCC4)C=CC2=C3c2ccc(NC(=O)CCl)cc2)nn1 [MKCA215-43]

- λmax Absorp. ([1]; BDCAC library, Table 3): 467 nm
- λmax Emission ([1]; BDCAC library, Table 3): 567 nm
- φ (quantum yield) ([2]; BDCAC library, Table 3): 1.4%
SMILES: CCCCCCCc1cn(-c2ccc3n2[B-](F)(F)[N+]2=C(N4CCCCC4)C=CC2=C3c2ccc(NC(C)=O)cc2)nn1 [BDCAC-50]

- λmax Absorp. ([1]; BDCAC library, Table 3): 465 nm
- λmax Emission ([1]; BDCAC library, Table 3): 588 nm
- φ (quantum yield) ([2]; BDCAC library, Table 3): 0.8%
SMILES: CC(=O)Nc1ccc(C2=C3C=CC(N4CCCCC4)=[N+]3[B-](F)(F)n3c2ccc3-n2cc(CN(C)Cc3ccccc3)nn2)cc1 [BDCAC-18]

- λmax Abs. (nm) [1]: 468 nm
- λmax Em. (nm) [1]: 582 nm
- φ (%) ([2]; MKAC compound library): 1.44%
SMILES: CC(=O)Nc1ccc(C2=C3C=CC(N4CCc5ccccc5C4)=[N+]3[B-](F)(F)n3c2ccc3-n2cc(CO)nn2)cc1 [MKAC66-70]

- λmax Absorp. (nm) [1]: 466 nm
- λmax Emission (nm) [1]: 582 nm
- φ (%) ([2]; MKCA compound library): 4.20%
SMILES: CCCCCC(O)c1cn(-c2ccc3n2[B-](F)(F)[N+]2=C(N(C)Cc4ccccc4)C=CC2=C3c2ccc(NC(=O)CCl)cc2)nn1 (stereo not drawn) [MKCA195-69]

- λmax Absorp. ([1]; MK library, Table 5): 473 nm
- λmax Emission ([1]; MK library, Table 5): 562 nm
- φ (quantum yield) ([2]; MK library, Table 5): 2.92%
SMILES: CCCc1cn(-c2ccc3n2[B-](F)(F)[N+]2=C(NCc4ccccc4C)C=CC2=C3c2ccc(N)cc2)nn1 [MK101-48]

- λmax Absorp. ([1]; MK library, Table 5): 481 nm
- λmax Emission ([1]; MK library, Table 5): 582 nm
- φ (quantum yield) ([2]; MK library, Table 5): 0.19%
SMILES: Nc1ccc(C2=C3C=CC(N4CCc5ccccc5C4)=[N+]3[B-](F)(F)n3c2ccc3-n2cc(C3CCCC3)nn2)cc1 [MK66-5]

- λmax Absorp. (nm) [1]: 465 nm
- λmax Emission (nm) [1]: 560 nm
- φ (%) ([2]; MKCA compound library): 21.76%
SMILES: Cc1ccccc1CNC1=[N+]2C(=C(c3ccc(NC(=O)CCl)cc3)c3ccc(-n4cc(CO)nn4)n3[B-]2(F)F)C=C1 [MKCA101-70]

- λmax Absorp. (nm) [1]: 466 nm
- λmax Emission (nm) [1]: 563 nm
- φ (%) ([2]; MKCA compound library): 42.58%
SMILES: O=C(CCl)Nc1ccc(C2=C3C=CC(NCc4cc(F)cc(F)c4)=[N+]3[B-](F)(F)n3c2ccc3-n2cc(CCc3ccccc3)nn2)cc1 [MKCA412-19]

- λmax Abs. (nm) [1]: 466 nm
- λmax Em. (nm) [1]: 583 nm
- φ (%) ([2]; MKAC compound library): 2.40%
SMILES: CCCC(C)c1cn(-c2ccc3n2[B-](F)(F)[N+]2=C(N4CC(C)OC(C)C4)C=CC2=C3c2ccc(NC(C)=O)cc2)nn1 (stereo not drawn) [MKAC20-3]

- λmax Absorp. (nm) [1]: 464 nm
- λmax Emission (nm) [1]: 563 nm
- φ (%) ([2]; MKCA compound library): 37.77%
SMILES: CCOc1ccccc1CNC1=[N+]2C(=C(c3ccc(NC(=O)CCl)cc3)c3ccc(-n4cc(CC5CCCCC5)nn4)n3[B-]2(F)F)C=C1 [MKCA103-8]
